Calls of active or inactive are those of the source. No cut-off for these calls is given here.
What was measured:
[1] = target: Glucocorticoid receptor (Mus musculus) (UniProt P06537); assay: Activity at mouse glucocorticoid receptor in C2C12 cells assessed as mouse glutamine synthetase activity
[2] = target: T1, Glucocorticoid receptor (Homo sapiens) (UniProt P04150); assay: Activity at human glucocorticoid receptor in human HepG2 cells assessed as tyrosine amino transferase activity; format: cell-based
T1 sequence (whole entry): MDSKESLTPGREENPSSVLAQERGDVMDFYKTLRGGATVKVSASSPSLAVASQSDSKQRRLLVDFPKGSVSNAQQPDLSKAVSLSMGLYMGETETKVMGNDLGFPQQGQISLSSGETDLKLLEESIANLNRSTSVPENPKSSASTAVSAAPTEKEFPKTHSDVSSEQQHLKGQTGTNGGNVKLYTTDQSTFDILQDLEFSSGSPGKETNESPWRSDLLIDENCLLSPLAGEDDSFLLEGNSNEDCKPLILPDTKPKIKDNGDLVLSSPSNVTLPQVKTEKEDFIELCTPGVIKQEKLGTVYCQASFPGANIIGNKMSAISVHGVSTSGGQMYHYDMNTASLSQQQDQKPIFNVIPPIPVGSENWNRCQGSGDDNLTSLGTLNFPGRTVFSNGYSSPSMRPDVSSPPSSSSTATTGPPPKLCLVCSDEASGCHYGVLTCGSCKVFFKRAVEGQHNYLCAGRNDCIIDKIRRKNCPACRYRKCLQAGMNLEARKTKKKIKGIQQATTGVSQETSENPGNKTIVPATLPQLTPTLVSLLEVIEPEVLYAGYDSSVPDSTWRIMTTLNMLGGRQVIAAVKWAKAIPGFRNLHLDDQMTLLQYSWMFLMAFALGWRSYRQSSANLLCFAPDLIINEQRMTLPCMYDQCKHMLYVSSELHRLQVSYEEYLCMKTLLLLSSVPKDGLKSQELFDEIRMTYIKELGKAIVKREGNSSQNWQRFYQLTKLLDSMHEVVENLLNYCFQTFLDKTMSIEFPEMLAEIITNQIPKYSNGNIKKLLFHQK

[3] = Displacement of [3H]dexamethasone from human glucocorticoid receptor alpha
Mus musculus [4] = assay: Antiinflammatory activity in mouse assessed as inhibition of LPS-induced TNFalpha at 30 mg/kg relative to prednisolone; format: functional
Mus musculus [5] = organism: Mus musculus; assay: animal or person; details: read-out: Inhibition
Mus musculus [6] = assay: Antiinflammatory activity in mouse assessed as inhibition of LPS-induced TNFalpha at 3 mg/kg; format: functional; set-up: scale not given: the % may be the effect or the level left
Mus musculus [7] = assay: Clearance in iv dosed mouse; format: functional, organism-based
Mus musculus [8] = assay: Half life in iv dosed mouse; format: functional, organism-based
Mus musculus [9] = assay: Oral bioavailability in mouse; format: functional, organism-based
Mus musculus [10] = assay: Normalized AUC in iv dosed mouse; format: functional, organism-based
[11] = target: T1, Glucocorticoid receptor (Homo sapiens); assay: (§1) Activity at human glucocorticoid receptor in human A549 cells assessed as repression of human IL6; format: cell-based
Glucocorticoid receptor = target: T2, Glucocorticoid receptor (Homo sapiens, UniProt P04150); assay: as §1; format: cell-based
T2 sequence (P04150 whole entry): T1 sequence (whole entry)

Sequence of Glucocorticoid receptor (Mus musculus) (P06537 whole entry, looked up): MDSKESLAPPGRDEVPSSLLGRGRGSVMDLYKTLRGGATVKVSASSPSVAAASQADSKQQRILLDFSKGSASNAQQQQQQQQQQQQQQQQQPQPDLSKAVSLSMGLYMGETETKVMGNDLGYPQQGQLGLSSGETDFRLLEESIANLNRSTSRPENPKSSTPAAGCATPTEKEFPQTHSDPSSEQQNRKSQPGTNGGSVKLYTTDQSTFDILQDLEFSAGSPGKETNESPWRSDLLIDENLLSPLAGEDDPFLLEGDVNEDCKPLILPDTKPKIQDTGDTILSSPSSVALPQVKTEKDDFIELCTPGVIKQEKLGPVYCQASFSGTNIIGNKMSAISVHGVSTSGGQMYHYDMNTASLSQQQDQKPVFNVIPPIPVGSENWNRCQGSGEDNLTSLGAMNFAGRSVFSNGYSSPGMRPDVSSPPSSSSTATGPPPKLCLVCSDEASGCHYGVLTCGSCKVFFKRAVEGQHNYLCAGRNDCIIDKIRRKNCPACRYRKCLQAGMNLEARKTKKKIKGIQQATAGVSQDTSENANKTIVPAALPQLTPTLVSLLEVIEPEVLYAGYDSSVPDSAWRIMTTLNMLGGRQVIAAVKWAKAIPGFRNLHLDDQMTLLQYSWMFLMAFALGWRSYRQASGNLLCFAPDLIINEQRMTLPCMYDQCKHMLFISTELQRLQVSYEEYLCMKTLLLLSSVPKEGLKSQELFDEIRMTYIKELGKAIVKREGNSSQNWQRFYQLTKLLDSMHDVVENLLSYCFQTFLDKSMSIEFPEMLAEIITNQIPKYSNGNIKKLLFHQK

Compound: C[C@]12Cc3cnn(-c4ccc(F)cc4)c3C=C1CC[C@@H]2[C@@H](O)c1cc2ccccc2s1
- Activity [1]: inactive
- Activity [2]: inactive
- IC50 [3]: 0.0691 µM

Compound: C[C@]12Cc3cnn(-c4ccc(F)cc4)c3C=C1CC[C@@H]2[C@@H](O)c1csc2ccccc12
- inhibition in vivo at 30 mg/kg (Mus musculus [4]): 113%

Compound: C[C@]12Cc3cnn(-c4ccc(F)cc4)c3C=C1CC[C@@H]2[C@H](O)c1ccc2ccccc2c1
- Activity [1]: inactive
- Activity [2]: inactive
- IC50 [3]: 0.198 µM

Compound: C[C@]12Cc3cnn(-c4ccc(F)cc4)c3C=C1CCC[C@@H]2[C@@H](O)c1cc2ccccc2s1
- EC50 [1]: 1.21 µM

Compound: C[C@]12C=CC(=O)C=C1CC[C@@H]1[C@@H]2[C@@H](O)C[C@@]2(C)[C@H]1CC[C@]2(O)C(=O)CO [PREDNISOLONE]
- inhibition in vivo at 3 mg/kg (Mus musculus [5]): 100%
- Activity (Mus musculus [6]): 71%

Compound: C[C@]12Cc3cnn(-c4ccc(F)cc4)c3C=C1CCC[C@@H]2[C@H](O)c1csc2ccccc12
- EC50 [1]: 0.003 µM
- IC50 [3]: 0.0015 µM

Compound: C[C@]12Cc3cnn(-c4ccc(F)cc4)c3C=C1CC[C@@H]2[C@@H](O)c1ccc2ccccc2c1
- Activity [1]: inactive
- Activity [2]: inactive
- IC50 [3]: 0.086 µM

Compound: C[C@]12Cc3cnn(-c4ccc(F)cc4)c3C=C1CC[C@@H]2[C@H](O)c1csc2ccccc12
- inhibition in vivo at 30 mg/kg (Mus musculus [4]): 103%
- CL (mL.min-1.kg-1) (Mus musculus [7]): 22.3
- T1/2 (Mus musculus [8]): 7.8 h
- bioavailability (Mus musculus [9]): 34%
- AUC (Mus musculus [10]): 1.7 µM·h/mg/kg

Compound: C[C@]12Cc3cnn(-c4ccc(F)cc4)c3C=C1CC[C@@H]2[C@H](O)c1cc2ccccc2s1
- Activity [2]: inactive
- Activity [11]: inactive
- IC50 [3]: 0.689 µM

Compound: C[C@]12Cc3cnn(-c4ccc(F)cc4)c3C=C1CCC[C@@H]2[C@@H](O)c1ccsc1
- EC50 (Glucocorticoid receptor): 0.001 µM
- IC50 [3]: 0.0051 µM

Compound: C[C@]12Cc3cnn(-c4ccc(F)cc4)c3C=C1CCC[C@@H]2[C@@H](O)c1csc2ccccc12
- IC50 [3]: 0.0051 µM
